Measured values published in US20170165253A1, “TREATMENT OF SEXUAL DYSFUNCTION AND FOR IMPROVED SEXUAL QUALITY OF LIFE” (ReJoy, priority 2015, published 2017).
Structures can show the parent of a compound that is named as a salt.

Key:
NAC = assay: Acetylcholine receptor agonists: nipple erection and sensitivity (Example 13); format: in vivo, human; conditions: single topical dose to one NAC, one subject per agent; for Onset Time: 0.4-12.5 mg/cm^2
Protocol: A study was conducted to assess the effectiveness of different acetylcholine receptor agonists on eliciting nipple erection and increasing nipple sensitivity in normal women aged 18-65. Ten subjects were recruited. Each subject was randomly assigned a single agonist. Each subject self-administered a single dose of the agonist to one NAC that was self-reported as the least sensitive (or if no differential sensitivity, then the left NAC). The agonists were applied in topical solutions to the NAC. The subject was supervised by a medical professional. Blood pressure and heart rate were monitored at baseline, 5 minutes, 10 minutes, and 30 minutes. […] Subjects were asked to report if they experienced nipple erection and sensitivity in less than 10 minutes and if the effect lasted more or less than 10 minutes. The subjects all responded to the agonists. The effect was short-lived; however, sensitivity is some of the subjects was reported up 60 minutes later.

areola = assay: Dose study of nipple erection and sensitivity, topical oxymetazoline (Example 7); format: in vivo, human; conditions: 0.5% topical solution
Protocol: Oxymetazoline HCl 0.1%, 0.2%, 0.5%. A study was conducted to assess the dosage of topical oxymetazoline solution required to elicit nipple erection and sensitivity. Five premenopausal subjects participated in the study. Subjects were not hypertensive, pregnant or breastfeeding. Three formulations were used: Formula A: 0.1% topical oxymetazoline hydrochloride solution; Formula B: 0.2% topical oxymetazoline hydrochloride solution; Formula C: 0.5% topical oxymetazoline hydrochloride solution.
The study was conducted over 3 days. On day 1, subjects were instructed to apply Formula A to both areolas. On day 2, subjects were instructed to apply Formula B to both areolas. On day 3, subjects were instructed to apply Formula C to both areolas. 0.1 mL of each formula was applied using a metered dosage dispenser to each areola. […] With the 0.5% topical oxymetazoline solution, response in nipple erection and sensitivity was obtained approximately within 1 hour and lasted over 8 hours.

SMILES | Nipple Sensitivity Effect Duration (NAC) [min] | Onset Time (NAC) [min] | Nipple Erection (Yes/No) (NAC) | Nipple Sensitivity (Yes/No) (NAC) | duration of response (areola) | time to response in nipple erection and sensitivity (areola) [h]
CC(=O)OCC[N+](C)(C)C [Acetylcholine] | <5 | <10 | – | – | – | –
CN1[C@@H](CC(=O)c2ccccc2)CCC[C@H]1C[C@H](O)c1ccccc1 [Alpha-Lobeline] | <10 | <10 | Yes | Yes | – | –
CC(C[N+](C)(C)C)OC(N)=O (stereo not shown) [Bethanechol] | <10 | <10 | Yes | Yes | – | –
C[N+](C)(C)CCOC(N)=O [Carbachol] | <10 | <10 | Yes | Yes | – | –
CC1OC2(CS1)CN1CCC2CC1 (stereo not shown) [Cevimeline] | <10 | <10 | Yes | Yes | – | –
CC(=O)OC(C)C[N+](C)(C)C.[Cl-] (stereo not shown) [Mecholyl] | <10 | <10 | Yes | Yes | – | –
CCN(CC)CCNC(=O)c1cc(Cl)c(N)cc1OC [Metaclopramide] | <10 | <10 | Yes | Yes | – | –
CC(=O)OC(C)C[N+](C)(C)C (stereo not shown) [Methacholine] | <10 | <10 | Yes | Yes | – | –
CN1CCCC1c1cccnc1 (stereo not shown) [Nicotine] | <10 | <10 | Yes | Yes | – | –
CC[C@@H]1C(=O)OC[C@@H]1Cc1cncn1C [Pilocarpine] | <5 | <10 | Yes | Yes | – | –
Cc1cc(C(C)(C)C)c(O)c(C)c1CC1=NCCN1 [oxymetazoline, oxymetazoline hydrochloride] | – | – | – | – | over 8 hours | ≤ 1
